Assay results reported in US11344510B2, “Arylcyclohexylamine derivatives and their use in the treatment of psychiatric disorders” (Gilgamesh Pharmaceuticals, Inc., priority 2019, dated 2022).
“Also recorded” adds a separate entry of the source. Structures can show the parent of a compound that is named as a salt. Where two headings read alike, the source gives them in different places.

What was measured:
mice (forced swim test) = test: Forced swim test in mice, 2-h pre-treatment; type: in vivo, CD-1 mice; settings: s.c.
Procedure: Animals. Male CD-1 mice, aged ˜8 weeks (body weight ˜25-30 g), were used in the experiments. Animals were singly housed under controlled temperatures and 12-hour light/dark cycles, with ad libitum food and water. These studies were carried out in strict accordance with the recommendations in the European Convention for the Protection of Vertebrate Animals Used for Experimental and Other Scientific Purposes. All efforts were made to minimize suffering.
Drugs and Drug Administration. Imipramine hydrochloride was administered intraperitoneally (i.p.) at a dose of 20 mg/kg. Other compounds were tested as the racemates (indicated by “rac” nomenclature) and were administered subcutaneously (s.c.) with doses calculated based on the freebase. Normal saline was used as the vehicle and all compounds were administered at a volume of 5 mL/kg, 2 h before behavioral testing.
Forced Swim Test (FST). Group size was n=10 per treatment, except for vehicle and rac-ketamine groups, which represented n=20 per treatment. Mice were placed individually in a glass cylinder measuring 19 cm wide by 30 cm tall and filled with 24° C. water to a depth of 18 cm. The activity of each mouse was video recorded during each 6-minute session and total immobility time was scored during the last 4 minutes of the session. The water was changed between each mouse to avoid any influence on behavior.
Statistical Analysis. […]

[1] = target: MK-801 binding site of the N-methyl-D-aspartate receptor (NMDAR); test: NMDAR radioligand binding with [3H]MK-801, Method A; parameters: species or system Wistar rat; settings: MK-801 site, Method A, Wistar rat brain (minus cerebellum), 5.0 nM [3H]MK-801; read-out: NMDAR Ki ± SEM
Procedure: Radioligand Binding—Method A. Affinity of the test compounds for NMDAR was determined in radioligand binding experiments with [^3H]MK-801 by Eurofins Panlabs, Inc., using methods adapted from the literature (Javitt et al. 1987; Reynolds et al. 1989) and under the conditions described in Table 12.

[2] = Formation of metabolites 11R/11S in RLM (High Activity conditions); type: in vitro ADME, Sprague Dawley rats; settings: LC-MS/MS
Procedure: RLM Stability (High Activity). Pooled RLM from male Sprague Dawley rats (XenoTech R1000, lot #1910100) were used. Microsomal incubations were carried out in 96-well plates in 5 aliquots of 40 μL each (one for each time point). Liver microsomal incubation medium consisted of PBS (100 mM, pH 7.4), MgCl2 (3.3 mM), NADPH (3 mM), glucose-6-phosphate (5.3 mM), and glucose-6-phosphate dehydrogenase (0.67 units/mL), with 1.0 mg of liver microsomal protein per mL. Control incubations were performed by replacing the NADPH-cofactor system with PBS. Test compounds (1 μM, final solvent concentration 1.6%) were incubated with microsomes at 37° C., shaking at 100 rpm. Incubations were performed in duplicate. Five time points over 60 minutes were analyzed. […] Supernatants were analyzed for parent compound remaining using a fit-for-purpose liquid chromatography-tandem mass spectrometry (LC-MS/MS) method, with authentic samples of each analyte used for identity confirmation.
This condition was also used for experiments measuring the formation of metabolite 11R from compounds 14R and 88R and formation of metabolite 11S from compounds 14S and 88S. The concentrations of 11R and 11S formed during the incubations were quantified using a fit-for-purpose liquid chromatography-tandem mass spectrometry (LC-MS/MS) method, with authentic samples of each analyte used for calibration and identity confirmation.

MK-801 site of NMDAR = MK-801 site of NMDAR (Rattus norvegicus, UniProt P35439); settings: read-out: NMDAR Ki ± SEM, from Ebert et al. 1997; cited from earlier work
[3] = Oral bioavailability in rats, Method A; type: in vivo; settings: plasma, Sprague Dawley rats
Procedure: Animals. Male Sprague Dawley rats were used in these studies Animals were randomly assigned to treatment groups and were fasted overnight before oral dosing.
Drugs. The test compound was dissolved in normal saline and administered intravenously (iv) or orally (po) at a dose of 10 mg/kg (calculated based on freebase) and at a volume of 5 mL/kg body weight. The compound was tested as the racemate (indicated by “rac” nomenclature).
Sample Collection and Bioanalysis. Blood samples were collected through external jugular vein (via cannulation) at 0.083, 0.25, 0.5, 1, 2, 4, 8 and 24 h post-dose (total 8 time points/rat, 4 rats per administration route). At each time point, ˜0.2 mL of blood was withdrawn and transferred into a pre-labeled 0.5 mL of micro centrifuge tube containing 4 μL of 200 mM K2EDTA solution as anticoagulant and mixed gently by inverting the tube to facilitate mixing of anticoagulant with the blood. Blood samples were kept on ice until centrifugation. The collected blood samples were centrifuged at 4000 rpm for 10 min at 4° C. Plasma samples were separated after centrifugation, transferred into pre-labeled tubes, and stored at −70° C. until bioanalysis. For bio analysis, 50 μL aliquots of plasma study samples or calibration standards were added to pre-labeled eppendorf tubes and 10 μL of an internal standard solution (diclofenac, 5 μg/mL in 50:50 v/v methanol:water) was added. Samples were quenched with 500 μL of precipitation solution (0.1% v/v formic acid in acetonitrile) and vortexed. All the samples were centrifuged at 14,000 rpm for 10 minutes at 4° C. Following centrifugation, 5 μL of each clear supernatant was analyzed with a fit-for-purpose LC-MS/MS method, with authentic samples of the analyte used for calibration and identification.
Data Analysis. Pharmacokinetic parameters were estimated using the non-compartmental analysis tool of Phoenix® WinNonlin software (Ver 8.1). The drug concentrations of samples below the lower limit of quantitation (LLOQ) were designated as zero.

With `CNC1(c2ccccc2)CCCCC1=O` (racemic) [Compound 14rac, 2-(methylamino)-2-phenylcyclohexan-1-one hydrochloride] the “immobility time in FST” value (mice (forced swim test); 2 h before test, last 4 minutes, relative to vehicle, hydrochloride) was “reduced time immobile; also recorded: induced antidepressant-like effects”, the “potency at reducing immobility relative to rac-ketamine” value (mice (forced swim test); 2 h pre-treatment) was “at least 30 fold” and the Ki [1] was 760 nM.
With `[2H]C([2H])([2H])N[C@@]1(c2ccccc2)CCCCC1=O` [Compound 88R, (R)-2-((methyl-d3)amino)-2-phenylcyclohexan-1-one] the “formation of metabolites 11R and 11S compared to non-deuterated counterparts” value [2] was “attenuated formation; also recorded: decreased formation”.
In the case of `CNC1(c2ccccc2Cl)CCCCC1=O` (racemic) [rac-ketamine, racemic ketamine, reference compound], the Ki (MK-801 site of NMDAR) is given as 530 ± 78 nM, the AUC(0-t) ([3]; male, rat, 10 mg/kg iv, read-out: AUC0-last (iv) (converted)) is given as 1340 ng·h/mL and the half-life ([3]; male, rat, 10 mg/kg iv, read-out: t1/2 (iv)) is given as 41.6 min. For the same compound, the Cmax ([3]; male, rat, 10 mg/kg po) was 190 ng/mL, the AUC(0-t) ([3]; male, rat, 10 mg/kg po, read-out: AUC0-last (po) (converted)) was 121 ng·h/mL and the half-life ([3]; male, rat, 10 mg/kg po, read-out: t1/2 (po)) was 33.7 min. For the same compound, the F ([3]; 10 mg/kg) was 9%.
